From US20250290032A1, “DEVICE AND METHODS FOR ENGINEERING AND MEASURING FLATTENED 3D CELL CULTURES” (The Trustees of Indiana University, priority 2022, published 2025)

Key:
[1] = test system: flattened spinal cord organoids (fSCOs); assay: MEA mean firing rate of flattened spinal cord organoids after capsaicin and short-term DAMGO; assay type: cell-based, human
Description: (§1) After 10 days of growing, the flattened organoids as developed in accordance with the present disclosure were put into contact with bottom electrodes for measuring electrical and neuron activity. Recording of the spinal cord organoids' electrical activity was performed by using the Axion Mestro Edge (Axion inc). The spinal cord organoids were kept at 37° C. maintained by an internal heater and infused with 5% CO2. To determine the mean firing rate of a spinal cord organoid, the 3-minute MEA recording was repeated 5 times. The final mean firing rate of the organoid was calculated as the average mean firing rate of the 3 most consistent recordings among the 5 recordings. To reduce the variation brought by adding substance, the medium was also refreshed before measuring mean firing rate baseline. The substance was first diluted into ScM IV at 2× of the desired concentration, then half of the medium was replaced with the 2× concentrated solution to reach the desired concentration.
Capsaicin, a transient receptor potential cation channel subfamily V member 1 (TRPV1) agonist, was applied to fSCOs to model pain responses. […] Next, capsaicin and different concentrations of DAMGO together to test the pain relief effects of different opioids doses. […] As the opioids doses increase, the fSCOs' firing rates decreased, and the organoids reached minimal firing rates when the concentration was higher than 1 μM.

[2] = target: T1, μ-opioid receptor (Homo sapiens, UniProt P35372); assay: Immunofluorescence staining of μ-opioid receptor expression after prolonged administration; assay type: cell-based; details: prolonged DAMGO treatment group (500 nM, 8 days)
T1 construct: confirm that the presence of neuron populations that express μ-opioid receptors; endogenous in cells; host or cells: flattened spinal cord organoids (fSCOs) derived from WA09 cells
T1 sequence (P35372 whole entry): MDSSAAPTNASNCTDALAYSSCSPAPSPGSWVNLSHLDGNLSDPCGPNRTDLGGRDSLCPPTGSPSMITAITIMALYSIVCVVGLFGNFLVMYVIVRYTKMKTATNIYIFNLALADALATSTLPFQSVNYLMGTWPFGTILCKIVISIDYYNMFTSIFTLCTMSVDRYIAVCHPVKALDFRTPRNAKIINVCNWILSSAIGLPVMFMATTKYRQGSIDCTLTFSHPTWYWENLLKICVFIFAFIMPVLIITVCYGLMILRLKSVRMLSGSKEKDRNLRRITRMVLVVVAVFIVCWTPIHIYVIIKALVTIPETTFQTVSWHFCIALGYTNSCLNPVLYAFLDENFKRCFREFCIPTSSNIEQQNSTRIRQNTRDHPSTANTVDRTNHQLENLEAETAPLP
Description: To first validate that the flattened organoids could be utilized to model pain relief, first immunofluorescence staining was used to confirm that the presence of neuron populations that express μ-opioid receptors. Sectioned samples were placed onto charged glass slides and washed three times with 1×PBS. The samples were then treated with 3N hydrochloric acid (HCl) for 15 minutes for antigen retrieval. Following HCl treatment, the samples were washed again twice with 1×PBS and subjected to blocking (0.3% Triton-X100, 5% normal goat serum in 1×PBS) for 1 hour, followed by primary antibody incubation in a humidified chamber at 4° C. overnight. The samples were then washed 3 times with 1×PBS followed by secondary antibody incubation at room temperature for 1 hour before being washed and coverslipped with gold anti-fade mounting medium containing DAPI (Invitrogen).

[3] = test system: flattened spinal cord organoids (fSCOs); assay: Chronic opioid induced hyperalgesia model: 8-day DAMGO administration, MEA mean firing rate response to capsaicin; assay type: cell-based, human
Description: as §1
The fSCOs of the present disclosure were exposed to prolonged opioid administration to test the tolerance of the organoids to opioid induced hyperalgesia. The fSCOs were treated with DAMGO (500 nM) for 8 days and their responses to pain modulators were tested every other day. […] Organoids treated together with DAMGO and Naloxone, a μ-opioid receptor antagonist, were also tested to determine whether the Naloxone could reduce the opioid induced hyperalgesia.

SMILES	% change From Baseline in Mean Firing Rate (Hz) ([1]; Capsaicin)	increase of mean firing rate of organoids after stimulation by capsaicin ([1]; capsaicin alone, fSCOs, MEA)	μ-opioid receptor expression [2]	% change From Baseline in Mean Firing Rate (Hz) ([1]; Capsaicin + 100 nM DAMGO)	% change From Baseline in Mean Firing Rate (Hz) ([1]; Capsaicin + 500 nM DAMGO)	% change From Baseline in Mean Firing Rate (Hz) ([1]; Capsaicin + 1 uM DAMGO)	% change From Baseline in Mean Firing Rate (Hz) ([1]; Capsaicin + 10 uM DAMGO)	DAMGO concentration at which organoids reached minimal firing rates ([1]; capsaicin together with DAMGO)	firing rate of spinal cord organoids versus baseline ([1]; capsaicin together with minimal dose of DAMGO (100 nM))	firing rate versus baseline after capsaicin plus low dose of DAMGO (100 nM) ([3]; after 8-day administration, Ctrl and DAMGO+Naloxone group)	DAMGO needed to eliminate pain activity and return to activity baseline ([3]; after 8-day administration, organoids in the DAMGO group (500 nM))	mean firing rate increase after capsaicin treatment ([3]; day 6 of DAMGO (500 nM) treatment, control 48%)	mean firing rate increase after capsaicin treatment ([3]; day 8 of DAMGO (500 nM) treatment, control 39%)	mean firing rate increase after capsaicin treatment versus control group ([3]; first 4 days of DAMGO (500 nM) treatment)
COc1cc(CNC(=O)CCCC/C=C/C(C)C)ccc1O [Capsaicin]	−0.1%	35.4%												
C[C@@H](NC(=O)[C@@H](N)Cc1ccc(O)cc1)C(=O)NCC(=O)N(C)[C@@H](Cc1ccccc1)C(=O)NCCO [DAMGO]			downregulated	+0.3%	−0.2%	−0.42%	−0.4%	higher than 1 μM	dropped below baseline	reduce the firing rate below baseline	more than 1 μM	73%	93%	no significant difference
